{
  "source": "patent US20130217673A1",
  "about": "“MIXED MONOAMINE REUPTAKE INHIBITOR IN A BIODEGRADABLE POLYMER CARRIER” (Warsaw Orthopedic, Inc, priority 2012, published 2013)",
  "origin": "cited, not measured here",
  "test_system": "nociception",
  "conditions": "compared with bupivacaine",
  "data": [
    {"smiles": "CN(C)CCC=C1c2ccccc2CCc2ccccc21", "note": "[amitryptyline, 3-(10,11-dihydro-5H-dibenzo[a,d]cycloheptene-5-ylidene)-N,N-dimethylpropan-1-amine]", "values": [
      {"measurement": "duration of the effect in blocking nociception", "result": "the effects last longer"},
      {"measurement": "potency in blocking nociception relative to bupivacaine", "result": "at least three times more potent than bupivacaine"}
    ]},
    {"smiles": "CN(C)CCC=C1c2ccccc2COc2ccccc21", "note": "[doxepin]", "values": [
      {"measurement": "duration of the effect in blocking nociception", "result": "the effects last longer"},
      {"measurement": "potency in blocking nociception relative to bupivacaine", "result": "at least three times more potent than bupivacaine"}
    ]}
  ]
}
